Reference: US4820694A, “Modifications of 3-O-demethylmycinose in macrocin and lactenocin” (priority 1986, dated 1989)
Converted amounts (≈) assume the structure as drawn. Read-outs that look alike come from different tables or passages of the source.

Key:
Escherichia coli EC14 = experiment: standard agar-dilution MIC assay; assay type: cell-based; details: agar-dilution, read-out: MIC
Experimental: (§1) The MIC's in Table III were determined by standard agar-dilution assays. The MIC's in Table IV were obtained using conventional brothdilution microtiter tests.

[1] = test system: Haemophilus influenzae 76; experiment: standard agar-dilution MIC assay; assay type: cell-based; details: Haemophilus influenzae, 76
Experimental: as §1

[2] = test system: Haemophilus influenzae C.L.; experiment: standard agar-dilution MIC assay; assay type: cell-based; details: Haemophilus influenzae
Experimental: as §1

[3] = test system: Klebsiella pneumoniae X68; experiment: standard agar-dilution MIC assay; assay type: cell-based; details: Klebsiella pneumoniae, X68; agar-dilution; read-out: MIC
Experimental: as §1

[4] = test system: Pseudomonas aeruginosa X239; experiment: standard agar-dilution MIC assay; assay type: cell-based; details: Pseudomonas aeruginosa, X239; agar-dilution; read-out: MIC
Experimental: as §1

[5] = test system: Staphylococcus aureus V41; experiment: standard agar-dilution MIC assay; assay type: cell-based; details: Staphylococcus aureus, V41
Experimental: as §1

[6] = test system: Staphylococcus aureus X1.1; experiment: standard agar-dilution MIC assay; assay type: cell-based; details: Staphylococcus aureus, X1.1
Experimental: as §1

[7] = test system: Staphylococcus aureus X400; experiment: standard agar-dilution MIC assay; assay type: cell-based; details: Staphylococcus aureus, X400
Experimental: as §1

[8] = test system: Staphylococcus epidermidis 222; experiment: standard agar-dilution MIC assay; assay type: cell-based; details: Staphylococcus epidermidis, 222
Experimental: as §1

[9] = test system: Staphylococcus epidermidis EPI1; experiment: standard agar-dilution MIC assay; assay type: cell-based; details: Staphylococcus epidermidis, EPI1
Experimental: as §1

[10] = test system: Streptococcus Group D 9960; experiment: standard agar-dilution MIC assay; assay type: cell-based; details: GROUPD9960, read-out: MIC
Experimental: as §1

[11] = test system: Streptococcus Group D X66; experiment: standard agar-dilution MIC assay; assay type: cell-based; details: read-out: MIC
Experimental: as §1

[12] = test system: Streptococcus pyogenes C203; experiment: standard agar-dilution MIC assay; assay type: cell-based; details: Streptococcus pyogenes, C203
Experimental: as §1

[13] = test system: Staphylococcus aureus S13E; experiment: microbe, parasite or virus in culture; assay type: cell-based; details: Staphylococcus aureus, S13E
Experimental: as §1

[14] = test system: Streptococcus pneumoniae Park I; experiment: microbe, parasite or virus in culture; assay type: cell-based; details: Streptococcus pneumoniae
Experimental: as §1

[15] = test system: Bordetella bronchiseptica; experiment: broth-dilution microtiter MIC test; assay type: cell-based; details: Bordetella bronchiseptica; broth-dilution microtiter; read-out: MIC
Experimental: as §1

[16] = test system: Mycoplasma gallisepticum 15E; experiment: broth-dilution microtiter MIC test; assay type: cell-based; details: Mycoplasmoides gallisepticum, 15E
Experimental: as §1

[17] = test system: Mycoplasma gallisepticum 29C; experiment: broth-dilution microtiter MIC test; assay type: cell-based; details: Mycoplasmoides gallisepticum, 29C
Experimental: as §1

[18] = test system: Mycoplasma gallisepticum 36H; experiment: broth-dilution microtiter MIC test; assay type: cell-based; details: Mycoplasmoides gallisepticum, 36H; broth-dilution microtiter; read-out: MIC
Experimental: as §1

[19] = test system: Mycoplasma hyopneumoniae S5972; experiment: broth-dilution microtiter MIC test; assay type: cell-based; details: Mesomycoplasma hyopneumoniae, S5972; broth-dilution microtiter; read-out: MIC
Experimental: as §1

Mycoplasma hyorhinis 29E = experiment: broth-dilution microtiter MIC test; assay type: cell-based; details: Mycoplasma, 29E
Experimental: as §1

Mycoplasma synoviae 40A = experiment: broth-dilution microtiter MIC test; assay type: cell-based; details: Mycoplasmopsis synoviae, 40A
Experimental: as §1

[20] = test system: Pasteurella hemolytica 22C; experiment: broth-dilution microtiter MIC test; assay type: cell-based; details: Pasteurella, 22C
Experimental: as §1

[21] = test system: Pasteurella hemolytica 23C; experiment: broth-dilution microtiter MIC test; assay type: cell-based; details: Pasteurella, 23C
Experimental: as §1

[22] = test system: Pasteurella hemolytica 41D; experiment: broth-dilution microtiter MIC test; assay type: cell-based; details: Pasteurella, 41D
Experimental: as §1

[23] = test system: Pasteurella multocida 17E; experiment: broth-dilution microtiter MIC test; assay type: cell-based; details: Pasteurella multocida, 17E
Experimental: as §1

[24] = test system: Pasteurella multocida 22A; experiment: broth-dilution microtiter MIC test; assay type: cell-based; details: Pasteurella multocida, 22A
Experimental: as §1

[25] = test system: Pasteurella multocida 40G; experiment: broth-dilution microtiter MIC test; assay type: cell-based; details: Pasteurella multocida, 40G
Experimental: as §1

[26] = test system: Pasteurella multocida 60A; experiment: broth-dilution microtiter MIC test; assay type: cell-based; details: Pasteurella multocida, 60A
Experimental: as §1

[27] = test system: Pasteurella multocida 68C; experiment: broth-dilution microtiter MIC test; assay type: cell-based; details: Pasteurella multocida, 68C
Experimental: as §1

[28] = test system: Staphylococcus aureus 19C; experiment: broth-dilution microtiter MIC test; assay type: cell-based; details: Staphylococcus aureus, 19C
Experimental: as §1

Streptococcus sp. 19F = experiment: broth-dilution microtiter MIC test; assay type: cell-based; details: Streptococcus, SP.19F
Experimental: as §1

[29] = test system: Streptococcus pyogenes C203; experiment: protection of mice experimentally infected with S. pyogenes C203; assay type: in vivo; details: mice, mg/kg × 2, doses given 1 and 4 hours postinfection, read-out: ED50
In short: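 Activity is given as ED50, the mg/kg dose (×2) protecting half of the mice infected with S. pyogenes C203. Compound was dosed 1 and 4 h after infection.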

| Compound | MIC (Escherichia coli EC14) | MIC [1] | MIC [2] | MIC [3] | MIC [4] | MIC [5] | MIC [6] | MIC [7] | MIC [8] | MIC [9] | MIC [10] | MIC [11] | MIC [13] | MIC [15] | MIC [16] | MIC [17] | MIC [18] | MIC [19] | MIC (Mycoplasma synoviae 40A) | MIC [20] | other results |
| --- | --- | --- | --- | --- | --- | --- | --- | --- | --- | --- | --- | --- | --- | --- | --- | --- | --- | --- | --- | --- | --- |
| CCC1OC(=O)CC(O)C(C)C(OC2OC(C)C(OC3CC(C)(O)C(O)C(C)O3)C(N(C)C)C2O)C(CC=O)CC(C)C(=O)C=CC(C)=CC1COC1OC(C)C2OC(=O)OC2C1OC (centres unmarked) [Compound 49, Macrocin-3'",4'"-Carbonate Derivative] | > 128 µg/mL | 16 µg/mL (≈ 17.2 µM) | 32 µg/mL (≈ 34.5 µM) | > 128 µg/mL | > 128 µg/mL | 0.5 µg/mL (≈ 0.539 µM) | 0.5 µg/mL (≈ 0.539 µM) | 1 µg/mL (≈ 1.08 µM) | 0.25 µg/mL (≈ 0.269 µM) | 1 µg/mL (≈ 1.08 µM) | 1 µg/mL (≈ 1.08 µM) | 1 µg/mL (≈ 1.08 µM) | 0.5 µg/mL (≈ 0.539 µM) | > 50 µg/mL | 25 µg/mL (≈ 26.9 µM) | 0.195 µg/mL (≈ 0.21 µM) | > 50 µg/mL | 0.097 µg/mL (≈ 0.105 µM) | 0.195 µg/mL (≈ 0.21 µM) | 50 µg/mL (≈ 53.9 µM) | MIC ([12]; agar-dilution, read-out: MIC): 0.12 µg/mL (≈ 0.129 µM); MIC ([14]; agar-dilution, read-out: MIC): 0.12 µg/mL (≈ 0.129 µM); MIC (Mycoplasma hyorhinis 29E): 0.78 µg/mL (≈ 0.84 µM); MIC [21]: 25 µg/mL (≈ 26.9 µM); MIC [22]: 50 µg/mL (≈ 53.9 µM); MIC [23]: 12.5 µg/mL (≈ 13.5 µM); MIC [24]: 25 µg/mL (≈ 26.9 µM); MIC [25]: 25 µg/mL (≈ 26.9 µM); MIC [26]: 25 µg/mL (≈ 26.9 µM); MIC [27]: 6.25 µg/mL (≈ 6.73 µM); MIC [28]: 0.78 µg/mL (≈ 0.84 µM); MIC (Streptococcus sp. 19F): 0.39 µg/mL (≈ 0.42 µM); ED50 ([29]; C203, Oral): 85.6 mg/kg; ED50 ([29]; C203, sc, Subcutaneous): 1 mg/kg |
| CCC1OC(=O)CC(O)C(C)C(OC2OC(C)C(O)C(N(C)C)C2O)C(CC=O)CC(C)C(=O)C=CC(C)=CC1COC1OC(C)C2OC(=O)OC2C1OC (centres unmarked) [Compound 51, Lactenocin-3",4"-Carbonate Derivative] | > 128 µg/mL | 8 µg/mL (≈ 10.2 µM) | 8 µg/mL (≈ 10.2 µM) | > 128 µg/mL | > 128 µg/mL | 2 µg/mL (≈ 2.55 µM) | 1 µg/mL (≈ 1.28 µM) | 2 µg/mL (≈ 2.55 µM) | 0.5 µg/mL (≈ 0.638 µM) | 1 µg/mL (≈ 1.28 µM) | 2 µg/mL (≈ 2.55 µM) | 2 µg/mL (≈ 2.55 µM) | 1 µg/mL (≈ 1.28 µM) | > 50 µg/mL | 50 µg/mL (≈ 63.8 µM) | 0.39 µg/mL (≈ 0.498 µM) | > 50 µg/mL | 0.097 µg/mL (≈ 0.124 µM) | 0.78 µg/mL (≈ 0.995 µM) | 12.5 µg/mL (≈ 15.9 µM) | MIC [12]: 0.25 µg/mL (≈ 0.319 µM); MIC [14]: 0.25 µg/mL (≈ 0.319 µM); MIC (Mycoplasma hyorhinis 29E; broth-dilution microtiter, read-out: MIC): 3.2 µg/mL (≈ 4.08 µM); MIC [21]: 25 µg/mL (≈ 31.9 µM); MIC [22]: 12.5 µg/mL (≈ 15.9 µM); MIC [23]: 6.25 µg/mL (≈ 7.97 µM); MIC [24]: 6.25 µg/mL (≈ 7.97 µM); MIC [25]: 3.12 µg/mL (≈ 3.98 µM); MIC [26]: 6.25 µg/mL (≈ 7.97 µM); MIC [27]: 12.5 µg/mL (≈ 15.9 µM); MIC [28]: 1.56 µg/mL (≈ 1.99 µM); MIC (Streptococcus sp. 19F): 3.12 µg/mL (≈ 3.98 µM); ED50 ([29]; C203, Oral): > 100 mg/kg; ED50 ([29]; C203, sc, Subcutaneous): 1.1 mg/kg |
